Non-standard residues stand in square brackets, D forms with d. Residues, ends and D or L forms follow the SMILES beside them. *: point of attachment. Desaminotyrosyl = O=C(CCc1ccc(O)cc1)*; Agmatine = N=C(N)NCCCCN*; Nle = CCCC[C@H](N)C(=O)O; Orn = NCCC[C@H](N)C(=O)O; Abu = CC[C@H](N)C(=O)O
Target: T1, GHRH receptor (Homo sapiens, UniProt Q02643)
T1 sequence (Q02643 23-423): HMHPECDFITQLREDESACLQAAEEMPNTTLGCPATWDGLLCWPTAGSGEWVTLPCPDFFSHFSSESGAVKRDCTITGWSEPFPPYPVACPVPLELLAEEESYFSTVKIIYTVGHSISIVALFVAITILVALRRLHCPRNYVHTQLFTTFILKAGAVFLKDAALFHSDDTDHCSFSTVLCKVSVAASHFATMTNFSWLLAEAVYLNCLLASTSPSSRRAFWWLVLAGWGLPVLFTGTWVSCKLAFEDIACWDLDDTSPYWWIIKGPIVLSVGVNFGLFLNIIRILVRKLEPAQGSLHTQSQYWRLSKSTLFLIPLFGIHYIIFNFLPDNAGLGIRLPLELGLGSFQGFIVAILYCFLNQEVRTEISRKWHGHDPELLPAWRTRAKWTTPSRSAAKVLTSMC
Assay: GHRH receptor binding, competition with 125I-labeled [His1,Nle27]hGHRH(1-32)NH2, human pituitary membrane homogenates (Table 6)
Design: Normal human pituitaries were purchased from the National Hormone and Peptide Program; tissue National Hormone and Peptide Program (A.F. Parlow, Harbor-UCLA Medical Center, Torrance, Calif.); host or cells: normal human pituitary, membrane fraction
Description: Normal human pituitaries were purchased from the National Hormone and Peptide Program (A.F. Parlow, Los Angeles, County Harbor-UCLA Medical Center, Torrance, Calif.).

## CCCC[C@H](NC(=O)[C@@H](NC(=O)[C@H](CC(=O)O)NC(=O)[C@H](CCC(N)=O)NC(=O)[C@H](CC(C)C)NC(=O)[C@H](CC(C)C)NC(=O)[C@H](CCCN)NC(=O)[C@H](CCCNC(=N)N)NC(=O)[C@H](C)NC(=O)[C@H](CO)NC(=O)[C@H](CC(C)C)NC(=O)[C@H](CCC(N)=O)NC(=O)[C@H](CC)NC(=O)[C@H](CC(C)C)NC(=O)[C@@H](NC(=O)[C@H](CCCN)NC(=O)[C@H](CCCNC(=N)N)NC(=O)[C@H](Cc1ccc(O)cc1)NC(=O)[C@H](CO)NC(=O)[C@H](CCC(N)=O)NC(=O)[C@@H](NC(=O)[C@H](Cc1ccccc1)NC(=O)[C@@H](NC(=O)[C@H](C)NC(=O)[C@H](CC(=O)O)NC(=O)[C@H](C)NC(=O)CCc1ccc(O)cc1)[C@@H](C)CC)[C@@H](C)O)C(C)C)[C@@H](C)CC)C(=O)N[C@@H](CC(=O)O)C(=O)NCCCCNC(=N)N [JI-38, [Dat^1, Gln^8, Orn^12,21, Abu^15, Nle^27, Asp^28, Agm^29]hGHRH(1-29)NH2, reference compound] (Desaminotyrosyl-ADAIFTQSYR[Orn]VL[Abu]QLSAR[Orn]LLQDI[Nle]D-Agmatine)
125I-[His1,Nle27]hGHRH(1-32)NH2, human pituitary membranes, Table 6
  IC50: 1.95 nM
GHRH(1-29) = 1, Table 6
  Relative affinity (Binding potency) vs GHRH: 3.03
JI-38 = 1, Table 6
  Relative affinity (Binding potency) vs JI-38: 1

— US10555987B2, “GHRH agonists for the treatment of ischemic disorders” (UNIVERSITY OF MIAMI, priority 2012, dated 2020)
